Test results published in patent publication US20250333406A1, “SULFONYL CYCLIC DERIVATIVES, AND COMPOSITIONS AND METHODS THEREOF” (Lysoway Therapeutics, Inc., priority 2023, published 2025).

Tested on: TFEB
Assay: TFEB Nuclear Translocation Assay
Type: cell-based
Conditions: read-out: EC50 of TFEB activation

SMILES | EC50 [nM]
CC(C)S(=O)(=O)c1ccc(S(=O)(=O)n2nc(N3CCN(c4ncc(F)cn4)CC34CC4)c3c(F)cc(F)cc32)cc1 [Compound 20, 4,6-difluoro-3-[7-(5-fluoropyrimidin-2-yl)-4,7-diazaspiro [2.5]octan-4-yl]-1-(4-isopropylsulfonylphenyl) sulfonyl-indazole] | ≤ 1000
CC(C)S(=O)(=O)n1ccc(S(=O)(=O)n2nc(N3CCN(c4ncccn4)CC34CC4)c3c(Cl)cc(F)cc32)c1 [Compound 164, 4-chloro-6-fluoro-1-(1-isopropylsulfonylpyrrol-3-yl)sulfonyl-3-(7-pyrimidin-2-yl-4,7-diazaspiro[2.5]octan-4-yl) indazole] | ≤ 1000
CC(C)S(=O)(=O)c1ccc(S(=O)(=O)n2nc(N3CCN(c4ncc(F)cc4F)CC34CC4)c3c(F)cc(F)cc32)cc1 [Compound 28, 3-[7-(3,5-difluoro-2-pyridyl)-4,7-diazaspiro[2.5]octan-4-yl]-4,6-difluoro-1-(4-isopropylsulfonylphenyl)sulfonyl-indazole] | ≤ 1000
CC(C)S(=O)(=O)c1ccc(S(=O)(=O)n2nc(N3CCN(CC(F)(F)F)CC3C(F)(F)F)c3c(Cl)cccc32)cc1 (centres unmarked) [Compound 75, 4-chloro-1-(4-isopropylsulfonylphenyl)sulfonyl-3-[4-(2,2,2-trifluoroethyl)-2-(trifluoromethyl)piperazin-1-yl]indazole] | ≤ 1000
CC(C)S(=O)(=O)n1ccc(S(=O)(=O)n2nc(N3CCN(c4ncc(F)cn4)CC34CC4)c3c(F)cc(Cl)cc32)c1 [Compound 167, 6-chloro-4-fluoro-3-(7-(5-fluoropyrimidin-2-yl)-4,7-diazaspiro [2.5]octan-4-yl)-1-((1-(isopropylsulfonyl)-1H-pyrrol-3-yl)sulfonyl)-1H-indazole] | ≤ 1000
CC(C)S(=O)(=O)c1ccc(S(=O)(=O)n2nc(N3CCN(c4ncc(F)cc4F)CC34CC4)c3c(F)cc(F)cc32)s1 [Compound 40, 3-(7-(3,5-difluoropyridin-2-yl)-4,7-diazaspiro [2.5]octan-4-yl)-4,6-difluoro-1-((5-(isopropylsulfonyl)thiophen-2-yl)sulfonyl)-1H-indazole] | ≤ 1000
CC(C)S(=O)(=O)c1ccc(S(=O)(=O)n2nc(N3CCN(c4ncc(F)cn4)CC34CC4)c3c(F)ccc(F)c32)s1 [Compound 34, 4,7-difluoro-3-(7-(5-fluoropyrimidin-2-yl)-4,7-diazaspiro [2.5]octan-4-yl)-1-((5-(isopropylsulfonyl)thiophen-2-yl)sulfonyl)-1H-indazole] | ≤ 1000
CC(F)(F)c1ccc(S(=O)(=O)n2nc(N3CCN(C4COC4)CC3C(F)(F)F)c3c(Cl)cccc32)cc1 (centres unmarked) [Compound 120, 4-chloro-1-((4-(1,1-difluoroethyl)phenyl)sulfonyl)-3-(4-(oxetan-3-yl)-2-(trifluoromethyl)piperazin-1-yl)-1H-indazole] | ≤ 1000
O=S(=O)(c1ccc(C(F)F)cc1)n1nc(N2CCN(c3ncc(F)cn3)CC2C(F)(F)F)c2c(Cl)cccc21 (centres unmarked) [Compound 77, 4-chloro-1-[4-(difluoromethyl)phenyl]sulfonyl-3-[4-(5-fluoropyrimidin-2-yl)-2-(trifluoromethyl)piperazin-1-yl]indazole] | ≤ 1000
CC(C)S(=O)(=O)c1ccc(S(=O)(=O)n2nc(N3CCN(c4ncc(F)cc4F)CC34CC4)c3c(Cl)cc(F)cc32)s1 [Compound 37, 4-chloro-3-[7-(3,5-difluoro-2-pyridyl)-4,7-diazaspiro [2.5]octan-4-yl]-6-fluoro-1-[(5-isopropylsulfonyl-2-thienyl)sulfonyl]indazole] | ≤ 1000
CC(C)S(=O)(=O)n1ccc(S(=O)(=O)n2nc(N3CCN(c4ncc(F)cn4)CC34CCC4)c3c(Cl)cc(F)cc32)c1 [Compound 179, 4-chloro-6-fluoro-3-(8-(5-fluoropyrimidin-2-yl)-5,8-diazaspiro [3.5]nonan-5-yl)-1-((1-(isopropylsulfonyl)-1H-pyrrol-3-yl)sulfonyl)-1H-indazole] | ≤ 1000
CC(C)C(F)(F)c1ccc(S(=O)(=O)n2nc(N3CCN(c4ncc(F)cn4)CC34CC4)c3c(Cl)cccc32)cc1 [Compound 90, 4-chloro-1-[4-(1,1-difluoro-2-methyl-propyl)phenyl]sulfonyl-3-[7-(5-fluoropyrimidin-2-yl)-4,7-diazaspiro [2.5]octan-4-yl]indazole] | ≤ 1000
CC(C)(F)S(=O)(=O)c1ccc(S(=O)(=O)n2nc(N3CCN(c4ncc(F)cn4)CC34CC4)c3c(Cl)cccc32)cc1 [Compound 22, 4-chloro-1-((4-((2-fluoropropan-2-yl)sulfonyl)phenyl)sulfonyl)-3-(7-(5-fluoropyrimidin-2-yl)-4,7-diazaspiro [2.5]octan-4-yl)-1H-indazole] | ≤ 1000
CC(C)S(=O)(=O)c1ccc(S(=O)(=O)n2nc(N3CCN(c4ccc(F)cn4)CC34CC4)c3c(Cl)cccc32)s1 [Compound 42, 4-chloro-3-(7-(5-fluoropyridin-2-yl)-4,7-diazaspiro [2.5]octan-4-yl)-1-((5-(isopropylsulfonyl)thiophen-2-yl)sulfonyl)-1H-indazole] | ≤ 1000
CC(C)S(=O)(=O)n1ccc(S(=O)(=O)n2nc(N3CCN(c4ncc(F)cn4)C[C@H]3C)c3c(Cl)cc(F)cc32)c1 [Compound 178, 4-chloro-6-fluoro-3-[(2R)-4-(5-fluoropyrimidin-2-yl)-2-methyl-piperazin-1-yl]-1-(1-isopropylsulfonylpyrrol-3-yl) sulfonyl-indazole] | ≤ 1000
CC(C)S(=O)(=O)n1cnc(S(=O)(=O)n2nc(N3CCN(c4ncc(F)cc4F)CC34CC4)c3c(F)cc(F)cc32)n1 [Compound 200, 3-(7-(3,5-difluoropyridin-2-yl)-4,7-diazaspiro [2.5]octan-4-yl)-4,6-difluoro-1-((1-(isopropylsulfonyl)-1H−1,2,4-triazol-3-yl)sulfonyl)-1H-indazole] | ≥ 10000
CC(C)S(=O)(=O)c1ccc(S(=O)(=O)n2nc(N3CCN(c4ncc(F)cn4)CC3C(F)(F)F)c3c(Cl)cccc32)cc1 (centres unmarked) [Compound 67, 4-chloro-3-[4-(5-fluoropyrimidin-2-yl)-2-(trifluoromethyl)piperazin-1-yl]-1-(4-isopropylsulfonylphenyl) sulfonyl-indazole] | ≤ 1000
CC(C)(c1ccc(S(=O)(=O)n2nc(N3CCN(c4ncc(F)cn4)CC34CC4)c3c(Cl)cccc32)cc1)C(F)F [Compound 99, 4-chloro-1-[4-(2,2-difluoro-1,1-dimethyl-ethyl)phenyl]sulfonyl-3-[7-(5-fluoropyrimidin-2-yl)-4,7-diazaspiro[2.5]octan-4-yl]indazole] | ≤ 1000
CC(C)S(=O)(=O)c1ccc(S(=O)(=O)n2nc(N3CCC[C@@H]3C(F)(F)F)c3c(Cl)cccc32)cc1 [Compound 109, 4-chloro-1-(4-isopropylsulfonylphenyl)sulfonyl-3-[(2R)-2-(trifluoromethyl)pyrrolidin-1-yl]indazole] | ≤ 1000
CC(C)S(=O)(=O)c1ccc(S(=O)(=O)n2nc(N3CCC(F)(F)CC34CC4)c3c(Cl)cccc32)s1 [Compound 12, 4-chloro-3-(7,7-difluoro-4-azaspiro [2.5]octan-4-yl)-1-[(5-isopropylsulfonyl-2-thienyl)sulfonyl]indazole] | ≤ 1000
CC(C)S(=O)(=O)c1ccc(S(=O)(=O)n2nc(N3CCC(F)(F)CC3C(F)(F)F)c3c(Cl)cccc32)cc1 (centres unmarked) [Compound 85, 4-chloro-3-[4,4-difluoro-2-(trifluoromethyl)-1-piperidyl]-1-(4-isopropylsulfonylphenyl) sulfonyl-indazole] | ≤ 1000
CC(F)(F)c1ccc(S(=O)(=O)n2nc(N3CCN(c4ncc(F)cc4F)CC34CC4)c3c(Cl)cccc32)cc1 [Compound 123, 4-chloro-1-((4-(1,1-difluoroethyl)phenyl)sulfonyl)-3-(7-(3,5-difluoropyridin-2-yl)-4,7-diazaspiro[2.5]octan-4-yl)-1H-indazole] | ≤ 1000
CC(C)(CF)c1ccc(S(=O)(=O)n2nc(N3CCN(c4ncc(F)cn4)CC34CC4)c3c(Cl)cccc32)cc1 [Compound 96, 4-chloro-1-[4-(2-fluoro-1,1-dimethyl-ethyl)phenyl]sulfonyl-3-[7-(5-fluoropyrimidin-2-yl)-4,7-diazaspiro [2.5]octan-4-yl]indazole] | ≤ 1000
CC1COCC(C)N1c1nn(S(=O)(=O)c2ccn(S(=O)(=O)C(C)C)c2)c2cccc(Cl)c12 (centres unmarked) [Compound 138, 4-[4-chloro-1-(1-isopropylsulfonylpyrrol-3-yl)sulfonyl-indazol-3-yl]-3,5-dimethyl-morpholine] | ≤ 1000
CC(C)S(=O)(=O)c1ccc(S(=O)(=O)n2nc(N3CCC(Cl)=C[C@H]3C(F)(F)F)c3c(Cl)cccc32)cc1 [Compound 81, 4-chloro-3-[(6S)-4-chloro-6-(trifluoromethyl)-3,6-dihydro-2H-pyridin-1-yl]-1-(4-isopropylsulfonylphenyl)sulfonyl-indazole] | ≤ 1000
[2H]c1c(S(=O)(=O)n2nc(N3CCN(c4ncc(F)cn4)CC34CC4)c3c(Cl)cc(F)cc32)c([2H])n(S(=O)(=O)C(C)C)c1[2H] [Compound 180, 4-chloro-6-fluoro-3-[7-(5-fluoropyrimidin-2-yl)-4,7-diazaspiro [2.5]octan-4-yl]-1-(2,4,5-trideuterio-1-isopropylsulfonyl-pyrrol-3-yl) sulfonyl-indazole] | ≤ 1000
CC(=O)N1CCN(c2nn(S(=O)(=O)c3ccc(S(=O)(=O)C(C)C)cc3)c3cccc(Cl)c23)C2(CC2)C1 [Compound 56, 1-[4-[4-chloro-1-(4-isopropylsulfonylphenyl)sulfonyl-indazol-3-yl]-4,7-diazaspiro[2.5]octan-7-yl]ethanone] | ≤ 1000
CC(F)(F)c1ccc(S(=O)(=O)n2nc(N3CCN(C4COC4)CC34CC4)c3c(Cl)cccc32)cc1 [Compound 119, 4-chloro-1-((4-(1,1-difluoroethyl)phenyl)sulfonyl)-3-(7-(oxetan-3-yl)-4,7-diazaspiro[2.5]octan-4-yl)-1H-indazole] | ≤ 1000
CC(C)S(=O)(=O)n1ccc(S(=O)(=O)n2nc(N3CCC(F)(F)CC34CC4)c3c(Cl)cc(F)cc32)c1 [Compound 191, 4-chloro-3-(7,7-difluoro-4-azaspiro [2.5]octan-4-yl)-6-fluoro-1-(1-isopropylsulfonylpyrrol-3-yl) sulfonyl-indazole] | ≤ 1000
